Data reported in US20040254371A1, “New benzothiazine and benzothiadiazine compounds” (priority 2003, published 2004).

System: AMPA receptors
Assay: Excitatory currents induced by AMPA in Xenopus oocytes (voltage-clamp)
Type: cell-based
Conditions: Xenopus oocytes injected with rat cerebral cortex poly(A+) mRNA, AMPA 10 μM, 20-24° C.
Procedure: Study of the excitatory currents induced by AMPA in Xenopus oocytes
mRNA's are prepared from cerebral cortex of male Wistar rats by the guanidinium thiocyanate/phenol/chloroform method. The poly (A^+) mRNA's are isolated by chromatography on oligo-dT cellulose and injected at a level of 50 ng per oocyte. The oocytes are incubated for 2 to 3 days at 18° C. to permit expression of the receptors and are then stored at 8-10° C.
Electrophysiological recording is carried out in a Plexiglass® chamber at 20-24° C. in OR2 medium (J. Exp. Zool., 1973, 184, 321-334) by the “voltage-clamp” method using two electrodes, with a third electrode placed in the bath serving as reference.
All the compounds are applied via the incubation medium and the electric current is measured at the end of the application period. AMPA is used in a concentration of 10 μM. For each compound studied, the concentration that doubles (EC2X) or quintuples (EC5X) the intensity of the current induced by AMPA alone (5 to 50 nA) is determined.

| SMILES | EC2X (concentration that doubles the intensity of the current induced by AMPA alone) | EC5X (concentration that quintuples the intensity of the current induced by AMPA alone) |
| --- | --- | --- |
| O=S1(=O)NC2CCCN2c2ccc(Oc3cccc(-c4ccoc4)c3)cc21 (stereo not drawn) [Example 17, 7-[3-(3-Furyl)phenoxy]-2,3,3a,4-tetrahydro-1H-pyrrolo[2,1-c][1,2,4]benzothiadiazine 5,5-dioxide] | 4.5 µM | 11.5 µM |
| O=S1(=O)NC2CCCN2c2ccc(Oc3cccc(-c4nnn[nH]4)c3)cc21 (stereo not drawn) [Example 1, 7-[3-(1H-Tetrazol-5-yl)phenoxy]-2,3,3a,4-tetrahydro-1H-pyrrolo-[2,1-c][1,2,4]benzothiadiazine 5,5-dioxide] | 0.2 µM | 0.8 µM |
| O=S1(=O)NC2CCCN2c2ccc(Oc3cccc(-c4cnco4)c3)cc21 (stereo not drawn) [Example 18, 7-[3-(1,3-Oxazol-5-yl)phenoxy]-2,3,3a,4-tetrahydro-1H-pyrrolo-[2,1-c][1,2,4]benzothiadiazine 5,5-dioxide] | 0.66 µM | 4 µM |
